Structures can show the parent of a compound that is named as a salt.

For one assay, the target named is rat TAAR1 (Rattus norvegicus (Rat), UniProt Q923Y9). The experiment in a line: Radioligand binding assay on rat TAAR1. The following applies: membranes of HEK-293 cells stably expressing rat TAAR1; second value of cell mouse/rat. The method, then:
(§1) Construction of TAAR Expression Plasmids and Stably Transfected Cell Lines
(§2) For the construction of expression plasmids the coding sequences of human, rat and mouse TAAR 1 were amplified from genomic DNA essentially as described by Lindemann et al.. The Expand High Fidelity PCR System (Roche Diagnostics) was used with 1.5 mM Mg^2+ and purified PCR products were cloned into pCR2.1-TOPO cloning vector (Invitrogen) following the instructions of the manufacturer. PCR products were subcloned into the pIRESneo2 vector (BD Clontech, Palo Alto, Calif.), and expression vectors were sequence verified before introduction in cell lines.
(§3) HEK293 cells (ATCC # CRL-1573) were cultured essentially as described by Lindemann et al. (2005). For the generation of stably transfected cell lines HEK293 cells were transfected with the pIRESneo2 expression plasmids containing the TAAR coding sequences (described above) with Lipofectamine 2000 (Invitrogen) according to the instructions of the manufacturer, and 24 hrs post transfection the culture medium was supplemented with 1 mg/ml G418 (Sigma, Buchs, Switzerland). After a culture period of about 10 d clones were isolated, expanded and tested for responsiveness to trace amines (all compounds purchased from Sigma) with the cAMP Biotrak Enzyme immunoassay (EIA) System (Amersham) following the non-acetylation EIA procedure provided by the manufacturer.
Radioligand Binding Assay on rat TAAR1
(§4) Membrane Preparation and Radioligand Binding.
HEK-293 cells stably expressing rat TAAR1 were maintained at 37° C. and 5% CO2 in DMEM high glucose medium, containing fetal calf serum (10%, heat inactivated for 30 min at 56° C.), penicillin/streptomycin (1%), and 375 μg/ml geneticin (Gibco). Cells were released from culture flasks using trypsin/EDTA, harvested, washed twice with ice-cold PBS (without Ca^2+ and Mg^2+), pelleted at 1,000 rpm for 5 min at 4° C., frozen and stored at −80° C. Frozen pellets were suspended in 20 ml HEPES-NaOH (20 mM, pH 7.4) containing 10 mM EDTA and homogenized with a Polytron (PT 6000, Kinematica) at 14,000 rpm for 20 s. The homogenate was centrifuged at 48,000×g for 30 min at 4° C. Subsequently, the supernatant was removed and discarded, and the pellet resuspended in 20 ml HEPES-NaOH (20 mM, pH 7.4) containing 0.1 mM EDTA using the Polytron (20 s at 14,000 rpm). This procedure was repeated and the final pellet resuspended in HEPES-NaOH containing 0.1 mM EDTA and homogenized using the Polytron. Typically, aliquots of 2 ml membrane portions were stored at −80° C. With each new membrane batch the dissociation constant (Kd) was determined via a saturation curve.
Nonspecific binding was defined as the amount of ^3-[H]-(S)-4-[(ethyl-phenyl-amino)-methyl]-4,5-dihydro-oxazol-2-ylamine bound in the presence of 10 μM unlabeled ligand. All compounds were tested at a broad range of concentrations (10 pM to 10 μM) in duplicates. […] The 96 deep well plates were incubated for 1 hr at 4° C. Incubations were terminated by rapid filtration through Unifilter-96 plates (Packard Instrument Company) and glass filters GF/C (Perkin Elmer) presoaked for 1 hr in polyethylenimine (0.3%) and washed 3 times with 1 ml of cold binding buffer. After addition of 45 μl of Microscint 40 (PerkinElmer) the Unifilter-96 plate was sealed and after 1 hr the ratioactivity counted using a TopCount Microplate Scintillation Counter (Packard Instrument Company).

The target in a further assay is mouse TAAR1 (Mus musculus (Mouse), UniProt Q923Y8). The experiment in a line: Radioligand binding assay on mouse TAAR1. Conditions: membranes of HEK-293 cells stably expressing mouse TAAR1; first value of cell mouse/rat. The method, then: as §1, §2, §3
Sequence of mouse TAAR1 (Q923Y8 whole entry): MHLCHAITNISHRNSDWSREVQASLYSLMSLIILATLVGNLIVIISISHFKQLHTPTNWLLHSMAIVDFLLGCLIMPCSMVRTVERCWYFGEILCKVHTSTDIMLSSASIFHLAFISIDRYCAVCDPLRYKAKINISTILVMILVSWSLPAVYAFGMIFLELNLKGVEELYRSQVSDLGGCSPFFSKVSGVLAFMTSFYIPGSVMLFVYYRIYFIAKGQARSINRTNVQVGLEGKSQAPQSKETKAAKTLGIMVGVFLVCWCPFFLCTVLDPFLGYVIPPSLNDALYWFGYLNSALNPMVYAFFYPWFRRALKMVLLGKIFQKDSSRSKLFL
Radioligand Binding Assay on Mouse TAAR1
as §4
HEK-293 cells stably expressing mouse TAAR1 were maintained at 37° C. and 5% CO2 in DMEM high glucose medium, containing fetal calf serum (10%, heat inactivated for 30 min at 56° C.), penicillin/streptomycin (1%), and 375 μg/ml geneticin (Gibco). Cells were released from culture flasks using trypsin/EDTA, harvested, washed twice with ice-cold PBS (without Ca^2+ and Mg^2+), pelleted at 1,000 rpm for 5 min at 4° C., frozen and stored at −80° C. Frozen pellets were suspended in 20 ml HEPES-NaOH (20 mM, pH 7.4) containing 10 mM EDTA and homogenized with a Polytron (PT 6000, Kinematica) at 14,000 rpm for 20 s. The homogenate was centrifuged at 48,000×g for 30 min at 4° C. Subsequently, the supernatant was removed and discarded, and the pellet resuspended in 20 ml HEPES-NaOH (20 mM, pH 7.4) containing 0.1 mM EDTA using the Polytron (20 s at 14,000 rpm). This procedure was repeated and the final pellet resuspended in HEPES-NaOH containing 0.1 mM EDTA and homogenized using the Polytron. Typically, aliquots of 2 ml membrane portions were stored at −80° C. With each new membrane batch the dissociation constant (Kd) was determined via a saturation curve. The TAAR1 radioligand ^3[H]—(S)-4-[(ethyl-phenyl-amino)-methyl]-4,5-dihydro-oxazol-2-ylamine (described in WO 2008/098857) was used at a concentration equal to the calculated Kd value, that was usually around 0.7 nM, resulting in the binding of approximately 0.5% of the radioligand and a specific binding representing approximately 70% of the total binding. Nonspecific binding was defined as the amount of ^3[H]—(S)-4-[(ethyl-phenyl-amino)-methyl]-4,5-dihydro-oxazol-2-ylamine bound in the presence of 10 μM unlabeled ligand. All compounds were tested at a broad range of concentrations ([…]) in duplicates. […] The 96 deep well plates were incubated for 1 hr at 4° C. Incubations were terminated by rapid filtration through Unifilter-96 plates (Packard Instrument Company) and glass filters GF/C (Perkin Elmer) presoaked for 1 hr in polyethylenimine (0.3%) and washed 3 times with 1 ml of cold binding buffer. After addition of 45 μl of Microscint 40 (PerkinElmer) the Unifilter-96 plate was sealed and after 1 hr the radioactivity counted using a TopCount Microplate Scintillation Counter (Packard Instrument Company).

Sequence of rat TAAR1 (Q923Y9 whole entry): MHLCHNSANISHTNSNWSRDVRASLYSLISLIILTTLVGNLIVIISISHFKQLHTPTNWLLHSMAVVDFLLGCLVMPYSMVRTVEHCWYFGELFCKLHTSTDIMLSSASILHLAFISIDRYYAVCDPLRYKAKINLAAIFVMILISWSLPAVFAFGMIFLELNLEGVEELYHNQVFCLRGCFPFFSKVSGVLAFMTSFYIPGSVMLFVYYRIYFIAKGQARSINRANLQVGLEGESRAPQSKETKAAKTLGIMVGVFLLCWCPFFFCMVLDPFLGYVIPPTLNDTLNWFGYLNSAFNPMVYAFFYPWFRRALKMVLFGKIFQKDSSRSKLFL

For orientation: Ki means a measure of affinity in units of concentration, obtained from inhibition or displacement. Read a low Ki as tighter binding. Turning to `N#Cc1cccc(-c2cc(C(=O)Nc3ccc(C4CCNC4)cc3)[nH]n2)c1` (racemic) [Example 38, (rac) 3-(3-Cyanophenyl)-N-(4-(pyrrolidin-3-yl)phenyl)-1H-pyrazole-5-carboxamide hydrochloride], the Ki came to 0.0042 µM on rat TAAR1 and 0.0021 µM at mouse TAAR1.
For `Cn1nc(-c2ccc(F)cc2)cc1C(=O)Nc1ccc(C2CNCCO2)cc1` (stereo in doubt) [Example 22, (S)-3-(4-fluorophenyl)-1-methyl-N-(4-(morpholin-2-yl)phenyl)-1H-pyrazole-5-carboxamide hydrochloride], the values for the Ki on rat TAAR1 and at mouse TAAR1 were 0.0022 µM and 0.0023 µM, respectively.
`O=C(Nc1ccc([C@H]2CNCCO2)cc1)c1cc(-c2ccccc2)[nH]n1` [Example 1, (S)—N-(4-(morpholin-2-yl)phenyl)-5-phenyl-1H-pyrazole-3-carboxamide hydrochloride]: the Ki was 0.0043 µM on rat TAAR1 and 0.0007 µM on mouse TAAR1.
The matching figures for `O=C(Nc1ccc([C@H]2CNCCO2)cc1)c1cc(-c2cccc(Cl)c2)[nH]n1` [Example 2, (S)-3-(3-chlorophenyl)-N-(4-(morpholin-2-yl)phenyl)-1H-pyrazole-5-carboxamide hydrochloride]: 0.0004 µM and 0.0003 µM.
Taken in the same sequence, the figures for `O=C(Nc1ccc([C@H]2CNCCO2)cc1)c1cc(-c2ccc(F)cc2)[nH]n1` [Example 3, (S)-3-(4-fluorophenyl)-N-(4-(morpholin-2-yl)phenyl)-1H-pyrazole-5-carboxamide hydrochloride] were 0.0027 µM and 0.0008 µM.
Taken in the same sequence, the figures for `COc1cccc(-c2cc(C(=O)Nc3ccc([C@H]4CNCCO4)cc3)n[nH]2)c1` [Example 4, (S)-3-(3-methoxyphenyl)-N-(4-(morpholin-2-yl)phenyl)-1H-pyrazole-5-carboxamide hydrochloride] were 0.0022 µM and 0.001 µM.
Consider `Cn1nc(-c2ccccc2)cc1C(=O)Nc1ccc([C@H]2CNCCO2)cc1` [Example 5, (S)-1-methyl-N-(4-(morpholin-2-yl)phenyl)-3-phenyl-1H-pyrazole-5-carboxamide hydrochloride], for which the values for the Ki at rat TAAR1 and on mouse TAAR1 were 0.0045 µM and 0.0072 µM, respectively.
Taken in the same sequence, the figures for `Cc1c(-c2ccccc2)n[nH]c1C(=O)Nc1ccc([C@H]2CNCCO2)cc1` [Example 6, (S)-4-methyl-N-(4-(morpholin-2-yl)phenyl)-3-phenyl-1H-pyrazole-5-carboxamide hydrochloride] were 0.008 µM and 0.0016 µM.
`COc1ccc(-c2cc(C(=O)Nc3ccc([C@H]4CNCCO4)cc3)[nH]n2)cc1` [Example 7, (S)-3-(4-methoxyphenyl)-N-(4-(morpholin-2-yl)phenyl)-1H-pyrazole-5-carboxamide hydrochloride]: the values for the Ki at rat TAAR1 and on mouse TAAR1 were 0.0049 µM and 0.0012 µM, respectively.
The matching figures for `O=C(Nc1ccc([C@H]2CNCCO2)cc1)c1cc(-c2ccccc2F)n[nH]1` [Example 8, (S)-3-(2-fluorophenyl)-N-(4-(morpholin-2-yl)phenyl)-1H-pyrazole-5-carboxamide hydrochloride]: 0.0073 µM and 0.0009 µM.
Taken in the same sequence, the figures for `COc1ccccc1-c1cc(C(=O)Nc2ccc([C@H]3CNCCO3)cc2)[nH]n1` [Example 9, (S)-3-(2-methoxyphenyl)-N-(4-(morpholin-2-yl)phenyl)-1H-pyrazole-5-carboxamide hydrochloride] were 0.014 µM and 0.0014 µM.
The matching figures for `O=C(Nc1ccc([C@H]2CNCCO2)cc1)c1cc(-c2ccccc2Cl)n[nH]1` [Example 10, (S)-3-(2-chlorophenyl)-N-(4-(morpholin-2-yl)phenyl)-1H-pyrazole-5-carboxamide hydrochloride]: 0.0026 µM and 0.0005 µM.
Take `COc1ccc(-c2cc(C(=O)Nc3ccc([C@H]4CNCCO4)cc3)[nH]n2)cc1OC` [Example 11, (S)-3-(3,4-dimethoxyphenyl)-N-(4-(morpholin-2-yl)phenyl)-1H-pyrazole-5-carboxamide hydrochloride]: the results for the Ki at rat TAAR1 and on mouse TAAR1 were 0.0127 µM and 0.0026 µM, respectively.
Taken in the same sequence, the figures for `O=C(Nc1ccc([C@@H]2CNCCO2)cc1)c1cc(-c2ccc(Cl)cc2)n[nH]1` [Example 12, (R)-3-(4-chlorophenyl)-N-(4-(morpholin-2-yl)phenyl)-1H-pyrazole-5-carboxamide hydrochloride] were 0.0004 µM and 0.0005 µM.
The matching figures for `O=C(Nc1ccc([C@@H]2CNCCO2)cc1)c1cc(-c2ccccc2Cl)n[nH]1` [Example 13, (R)-3-(2-chlorophenyl)-N-(4-(morpholin-2-yl)phenyl)-1H-pyrazole-5-carboxamide hydrochloride]: 0.001 µM and 0.0008 µM.
In the case of `O=C(Nc1ccc([C@H]2CNCCO2)cc1)c1cc(-c2ccc(Cl)cc2)n[nH]1` [Example 14, (S)-3-(4-chlorophenyl)-N-(4-(morpholin-2-yl)phenyl)-1H-pyrazole-5-carboxamide hydrochloride], the Ki at rat TAAR1 was found to be 0.0028 µM; at mouse TAAR1, 0.0017 µM.
The matching figures for `O=C(Nc1ccc([C@@H]2CNCCO2)cc1)c1cc(-c2cccc(Cl)c2)n[nH]1` [Example 15, (R)-3-(3-chlorophenyl)-N-(4-(morpholin-2-yl)phenyl)-1H-pyrazole-5-carboxamide hydrochloride]: 0.0004 µM and 0.0006 µM.
Taken in the same sequence, the figures for `COc1cccc(-c2cc(C(=O)Nc3ccc([C@@H]4CNCCO4)cc3)[nH]n2)c1` [Example 16, (R)-3-(3-methoxyphenyl)-N-(4-(morpholin-2-yl)phenyl)-1H-pyrazole-5-carboxamide hydrochloride] were 0.0014 µM and 0.0013 µM.
The matching figures for `Cn1nc(-c2cccc(Cl)c2)cc1C(=O)Nc1ccc([C@H]2CNCCO2)cc1` [Example 17, (S)-3-(3-chlorophenyl)-1-methyl-N-(4-(morpholin-2-yl)phenyl)-1H-pyrazole-5-carboxamide hydrochloride]: 0.0024 µM and 0.0016 µM.

The record behind these values is patent US9073911B2, “Pyrazole derivatives” (HOFFMANN-LA ROCHE INC., priority 2011, dated 2015).
